Details: Cohort 3 400 mg QD
Experimental: All responses were assessed by the investigators.
Reported Adverse Events. […] All-cause mortality data collected during the study were assessed for all enrolled participants. Disease progression related death was not reported as AE.
Number of Participants With Treatment-emergent Adverse Events (TEAEs), and Treatment-emergent Serious Adverse Events (TESAEs). […] TEAEs included both SAEs and non-SAEs. […] Analysis was performed on safety population which included all participants who received at least 1 dose of study medication.

CC(C)NC(=O)COc1cccc(-c2nc(Nc3ccc4[nH]ncc4c3)c3ccccc3n2)c1 [Belumosudil, 2-{3-[4-(1H-indazol-5-ylamino)-2-quinazolinyl]phenoxy}-N-(propan-2-yl) acetamide]
Renal failure: Affected/At Risk: 0/21 | Renal failure: Affected/At Risk (%): (0%) | Respiratory syncytial virus infection: # Events: 3 | Respiratory syncytial virus infection: Affected/At Risk: 2/21 | Respiratory syncytial virus infection: Affected/At Risk (%): (9.52%) | Respiratory tract infection fungal: # Events: 0 | Respiratory tract infection fungal: Affected/At Risk: 0/21 | Respiratory tract infection fungal: Affected/At Risk (%): (0%) | Respiratory tract infection: # Events: 0 | Respiratory tract infection: Affected/At Risk: 0/21 | Respiratory tract infection: Affected/At Risk (%): (0%) | Restless legs syndrome: # Events: 0 | Restless legs syndrome: Affected/At Risk: 0/21 | Restless legs syndrome: Affected/At Risk (%): (0%) | Rosacea: # Events: 0 | Rosacea: Affected/At Risk: 0/21 | Rosacea: Affected/At Risk (%): (0%) | SAE Abdominal wall haematoma, # events: 1 | SAE Abdominal wall haematoma, affected/at risk: 1/21 | SAE Acute kidney injury, # events: 0 | SAE Acute kidney injury, affected/at risk: 0/21 | SAE Acute lymphocytic leukaemia recurrent, # events: 1 | SAE Acute lymphocytic leukaemia recurrent, affected/at risk: 1/21 | SAE Acute respiratory failure, # events: 0 | SAE Acute respiratory failure, affected/at risk: 0/21 | SAE Anaphylactic reaction, # events: 0 | SAE Anaphylactic reaction, affected/at risk: 0/21 | SAE Bacteraemia, # events: 0 | SAE Bacteraemia, affected/at risk: 0/21 | SAE Cardiac arrest, # events: 1 | SAE Cardiac arrest, affected/at risk: 1/21 | SAE Cellulitis, # events: 0 | SAE Cellulitis, affected/at risk: 0/21 | SAE Chronic graft versus host disease in skin, # events: 0 | SAE Chronic graft versus host disease in skin, affected/at risk: 0/21 | SAE Citrobacter infection, # events: 0 | SAE Citrobacter infection, affected/at risk: 0/21 | SAE Dyspnoea, # events: 3 | SAE Dyspnoea, affected/at risk: 3/21 | SAE Embolism, # events: 0 | SAE Embolism, affected/at risk: 0/21 | SAE Febrile neutropenia, # events: 1 | SAE Febrile neutropenia, affected/at risk: 1/21 | SAE Graft versus host disease in lung, # events: 1 | SAE Graft versus host disease in lung, affected/at risk: 1/21 | SAE Hypoxia, # events: 2 | SAE Hypoxia, affected/at risk: 2/21 | SAE Influenza A virus test positive, # events: 0 | SAE Influenza A virus test positive, affected/at risk: 0/21 | SAE Influenza like illness, # events: 2 | SAE Influenza like illness, affected/at risk: 2/21 | SAE Lacunar infarction, # events: 0 | SAE Lacunar infarction, affected/at risk: 0/21 | SAE Leukaemia recurrent, # events: 1 | SAE Leukaemia recurrent, affected/at risk: 1/21 | SAE Lipomatosis, # events: 0 | SAE Lipomatosis, affected/at risk: 0/21 | SAE Metastases to meninges, # events: 0 | SAE Metastases to meninges, affected/at risk: 0/21 | SAE Muscular weakness, # events: 0 | SAE Muscular weakness, affected/at risk: 0/21 | SAE Myelodysplastic syndrome, # events: 1 | SAE Myelodysplastic syndrome, affected/at risk: 1/21 | SAE Non-cardiac chest pain, # events: 0 | SAE Non-cardiac chest pain, affected/at risk: 0/21 | SAE Obliterative bronchiolitis, # events: 0 | SAE Obliterative bronchiolitis, affected/at risk: 0/21 | SAE Pericardial effusion, # events: 1 | SAE Pericardial effusion, affected/at risk: 1/21 | SAE Pleural effusion, # events: 1 | SAE Pleural effusion, affected/at risk: 1/21 | SAE Pneumonia viral, # events: 1 | SAE Pneumonia viral, affected/at risk: 1/21 | SAE Pneumonia, # events: 3 | SAE Pneumonia, affected/at risk: 3/21 | SAE Pregnancy of partner, # events: 1 | SAE Pregnancy of partner, affected/at risk: 1/21 | SAE Proteinuria, # events: 0 | SAE Proteinuria, affected/at risk: 0/21 | SAE Respirovirus test positive, # events: 0 | SAE Respirovirus test positive, affected/at risk: 0/21 | SAE Small intestinal obstruction, # events: 1 | SAE Small intestinal obstruction, affected/at risk: 1/21 | SAE Stenotrophomonas infection, # events: 0 | SAE Stenotrophomonas infection, affected/at risk: 0/21 | SAE Urinary retention, # events: 1 | SAE Urinary retention, affected/at risk: 1/21 | SAE Urinary tract infection, # events: 0 | SAE Urinary tract infection, affected/at risk: 0/21 | SAE Varicella zoster virus infection, # events: 1 | SAE Varicella zoster virus infection, affected/at risk: 1/21 | SAE total, affected/at risk: 13/21 | Sinus pain: # Events: 0 | Sinus pain: Affected/At Risk: 0/21 | Sinus pain: Affected/At Risk (%): (0%) | Sinusitis: # Events: 1 | Sinusitis: Affected/At Risk: 1/21 | Sinusitis: Affected/At Risk (%): (4.76%) | Skin abrasion: # Events: 2 | Skin abrasion: Affected/At Risk: 2/21 | Skin abrasion: Affected/At Risk (%): (9.52%) | Skin lesion: # Events: 0 | Skin lesion: Affected/At Risk: 0/21 | Skin lesion: Affected/At Risk (%): (0%) | Skin papilloma: # Events: 0 | Skin papilloma: Affected/At Risk: 0/21 | Skin papilloma: Affected/At Risk (%): (0%) | Spinal compression fracture: # Events: 0 | Spinal compression fracture: Affected/At Risk: 0/21 | Spinal compression fracture: Affected/At Risk (%): (0%) | Squamous cell carcinoma of skin: # Events: 0 | Squamous cell carcinoma of skin: Affected/At Risk: 0/21 | Squamous cell carcinoma of skin: Affected/At Risk (%): (0%) | Stomatitis: # Events: 1 | Stomatitis: Affected/At Risk: 1/21 | Stomatitis: Affected/At Risk (%): (4.76%) | Superior vena cava syndrome: # Events: 0 | Superior vena cava syndrome: Affected/At Risk: 0/21 | Superior vena cava syndrome: Affected/At Risk (%): (0%) | Tachycardia: # Events: 2 | Tachycardia: Affected/At Risk: 2/21 | Tachycardia: Affected/At Risk (%): (9.52%) | Tendonitis: # Events: 0 | Tendonitis: Affected/At Risk: 0/21 | Tendonitis: Affected/At Risk (%): (0%) | Testicular pain: # Events: 0 | Testicular pain: Affected/At Risk: 0/21 | Testicular pain: Affected/At Risk (%): (0%) | Testicular swelling: # Events: 0 | Testicular swelling: Affected/At Risk: 0/21 | Testicular swelling: Affected/At Risk (%): (0%) | Thoracic spinal stenosis: # Events: 0 | Thoracic spinal stenosis: Affected/At Risk: 0/21 | Thoracic spinal stenosis: Affected/At Risk (%): (0%) | Thrombocytopenia: # Events: 1 | Thrombocytopenia: Affected/At Risk: 1/21 | Thrombocytopenia: Affected/At Risk (%): (4.76%)
